Assay results: US7129239B2, “Purine compounds and uses thereof” (Pfizer Inc., priority 2002, dated 2006)

System: CB-1 receptor
Assay: CB-1 receptor binding assay ([3H]SR141716A displacement)
Details: rat or human protocol not specified
Description: The following assays were designed to detect compounds that inhibit the binding of [^3H] SR141716A (selective radiolabeled CB-1 ligand) and [^3H]
PelFreeze brains (available from Pel Freeze Biologicals, Rogers, Ark.) were cut up and placed in tissue preparation buffer (5 mM Tris HCl, pH=7.4 and 2 mM EDTA), polytroned at high speed and kept on ice for 15 minutes. The homogenate was then spun at 1,000×g for 5 minutes at 4° C. The supernatant was recovered and centrifuged at 100,000×G for 1 hour at 4° C. […] A protein assay was performed and 200 μl of tissue totaling 20 μg was added to the assay.
The test compounds were diluted in drug buffer (0.5% BSA, 10% DMSO and TME) and then 25 μl were added to a deep well polypropylene plate. [^3H] SR141716A was diluted in a ligand buffer (0.5% BSA plus TME) and 25 μl were added to the plate. A BCA protein assay was used to determine the appropriate tissue concentration and then 200 μl of rat brain tissue at the appropriate concentration was added to the plate. […] In the morning the filters were counted on a Wallac Betaplate™ counter (available from PerkinElmer Life Sciences™, Boston, Mass.). […]
The test compounds were diluted in drug buffer (0.5% BSA, 10% DMSO and TME) and then 25 μl were added to a deep well polypropylene plate. […] In the morning the filters were counted on a Wallac Betaplate™ counter (available from PerkinElmer Life Sciences™, Boston, Mass.).

Compound | binding activity [nM]
O=C([O-])C1(Nc2ncnc3c2nc(-c2ccccc2Cl)n3-c2ccc(Cl)cc2)CCCC1.[K+] [Example 19A-1, 1-[9-(4-chlorophenyl)-8-(2-chlorophenyl)-9H-purin-6-ylamino]-cyclopentanecarboxylic Acid, Potassium Salt] | 2.8
NC1(C(=O)[O-])CCN(c2ncnc3c2nc(-c2ccccc2Cl)n3-c2ccc(Cl)cc2)CC1.[K+] [Example 19A-2, 4-Amino-1-[9-(4-chlorophenyl)-8-(2-chlorophenyl)-9H-purin-6-yl]-piperidine-4-carboxylic Acid, Potassium Salt] | 1.2
